{"source": "paper PMC12830207", "about": "“Targeting the protein–protein interaction between the CDC37 cochaperone and client kinases by an allosteric RAF dimer breaker” (The Journal of Biological Chemistry, 2025)", "key": {"[1]": {"test_system": "selected kinases in HCT116 cells", "experiment": "Immunoblot of selected kinases in HCT116 cells", "format": "cell-based", "details": "Western blot; for protein levels of Chk2, PKCδ, and SRPK1: HCT116, braftide, Fig. S12A", "procedure": "(§1) Western blot band densities were quantified with ImageJ software (National Institutes of Health) and normalized to the indicated loading control. Statistical significance was determined through one-/two-way ANOVA, where indicated, followed by Tukey's honest significant difference post hoc test with corresponding p values (∗p < 0.05, ∗∗p < 0.002, ∗∗∗p < 0.0002, and ∗∗∗∗p < 0.0001). All graph bars represent the mean ± SD with individual data points per biological replicate with corresponding p values."}, "CDC37–BRAF interaction": {"test_system": "CDC37–BRAF interaction", "experiment": "Co-IP of CDC37-FLAG with BRAF-V5 in HCT116", "format": "cell-based", "details": "HCT116, 5 µM braftide, three biological replicates", "procedure": "HEK293 cells were seeded at 1(10)^6 cells per well for a 6-well plate or 5(10)^6 for 10 cm dishes and incubated until 40% to 60% confluency. Transfection was carried out using a 1:3 DNA:PEI-MAX ratio in OPTI-MEM and allowed 48 h for protein expression. For peptide assays, 48 h post-transfection, cells were treated with TAT–braftide carried in OPTI-MEM at indicated concentrations. Cells were harvested in cold PBS. Harvested cells were lysed in 4% SDS or modified radioimmunoprecipitation assay (RIPA) for co-IP experiments. Quantification of total protein by the bicinchoninic acid assay was carried out according to the manufacturer's protocols (Pierce; catalog no.: 23225).\nTransfected HEK293 cells were treated with the indicated treatments and harvested in cold PBS. […] Samples were analyzed via immunoblot.\nas §1, with “All graph bars represent the mean ± SD with individual data points per biological replicate with corresponding p values.” left out"}, "BRAF kinase domain": {"biological_target": "BRAF kinase domain", "experiment": "Hydrogen–deuterium exchange MS", "format": "binding, human", "details": "BRAF^KD 10 μM, braftide 30 μM, pH 7.4, 20 s to 4.5 h, duplicate HDX–MS", "procedure": "The 6XHIS-BRAF KD (residues 442–723, supplementary information 1) was purified as previously reported ([39]) with the human sequence expressed in Escherichia coli. The KD contains 16 solubilizing mutations (I543A, I544S, I551K, Q562R, L588N, K630S, F667E, Y673S, A688R, L706S, Q709R, S713E, L716E, S720E, P722S, and K723G), which were determined to preserve kinase activity and increase protein expression in E. coli. Mutations of the 16 residues are not involved in MEK1 interactions ([40], [41]). […] Protein induction was induced by 1 mM IPTG, 16 °C in a shaking incubator, 200 RPM. The pellet was lysed in a buffer containing 50 mM Hepes (pH 7.4), 250 mM NaCl, 50 mM KCl, 10 mM imidazole, 10 mM β-mercaptoethanol, 10% glycerol, and 1X protease inhibitor (Roche) under sonication. […] Protein fractions were analyzed on SDS-PAGE, pooled, and flash frozen for analytical use.\nThe exchange times varied from 20 s to 4.5 h. […] Peptides were identified through MS/MS analysis of nondeuterated samples, with data analyzed using SEQUEST (Thermo Proteome Discoverer) against a database containing sequences of BRAF^KD, braftide, pepsin, potential contaminants, and decoy proteins. Deuterated samples were analyzed using ExMS2 software (developed by Englander Lab at University of Pennsylvania)."}, "BRAF–CRAF protein levels": {"test_system": "BRAF–CRAF protein levels", "details": "cited from earlier work", "source_text": "RAF family members are known clients of the HSP90–CDC37 chaperone complex and rely on their interaction with the CDC37–HSP90 chaperone complex to maintain basal protein stability ([4]). […] Although the HSP90 and CDC37 interface is vast and dynamic ([7]), the αC helix–β4 loop is a well-defined structural motif conserved across RAF and other kinases ([29]). The RAF DIF, being ..."}, "WM3629 cells": {"test_system": "WM3629 cells", "experiment": "WST-1 cell viability assay, WM3629", "format": "cell-based", "details": "WM3629, WST-1, 24 h", "description": "HCT116 and WM3629 cells were seeded onto polylysine-coated, clear-bottomed, 96-well plates at 15(10)^3 cells per well and allowed to incubate for 24 h. Cells were treated with braftide and 17-AAG mixtures at indicated concentrations for 24 h (37 °C). The WST-1 cell viability assay was carried out according to the manufacturer's protocols (Roche; 11644807001) for 4 h, and absorbance readings were taken at 450 nM in a CLARIOstar plate reader. For the dose–response curves of braftide and 17-AAG, the data were fit to the 4-parameter logistic equation (dose–response fitting equation) in GraphPad Prism (Dotmatics): y=A1+(A2−A1)÷(1+10^(LOGx0−x)p)\nError bars are indicative of the SEM of each point."}}, "note": "Entries after “also recorded” stand apart in the source; their conditions may differ."}
{"substance": "GRKKRRQRRRPQ-miniPEG-TRHVNILLFM [Braftide]", "values": [{"measurement": "protein expression levels of downregulated kinases", "setting": "[1]; HCT116, 10 μM braftide, 1 h, n = 9", "value": "reduced protein expression levels of GSK3α, S6, AKT1, TAK, FAK, BRAF, CRAF, MEK1/2, and ERK1/2"}, {"measurement": "protein levels of Chk2, PKCδ, and SRPK1", "setting": "[1]", "value": "unaffected by Braftide treatment"}, {"measurement": "protein levels of Chk2, PKCδ, and SRPK1", "setting": "[1]; listed as braftide", "value": "protein levels of these kinases remain unchanged after braftide treatment"}, {"measurement": "CDC37–BRAF interaction", "setting": "CDC37–BRAF interaction", "value": "decreases its association with coimmunoprecipitated BRAF-V5 and CRAF-HA"}, {"measurement": "CDC37–BRAF interaction", "setting": "CDC37–BRAF interaction; listed as braftide", "value": "reduced the CDC37–RAF interaction at lower doses than in HEK293 cells"}, {"measurement": "braftide binding region on BRAF KD / change in deuterium uptake", "setting": "BRAF kinase domain", "value": "slows deuterium incorporation compared to apo BRAF^KD; also recorded: essentially no change except in the dimer interface region"}, {"measurement": "braftide binding region on BRAF KD / change in deuterium uptake", "setting": "BRAF kinase domain; listed as braftide", "value": "spanning amino acids 496 to 515"}, {"measurement": "degradation of BRAF–CRAF protein levels", "setting": "BRAF–CRAF protein levels", "value": "induces the degradation of BRAF–CRAF protein levels through the ubiquitin-26s proteasomal degradation system"}, {"measurement": "synergy of braftide and 17-AAG, WM3629", "setting": "WM3629 cells", "value": "synergy between braftide and 17-AAG"}]}
